Data on twelve compounds can be found in PMC12650660, “Novel Synthetic Strategies Towards Analogues of Cadaside and Malacidin Antibiotic Peptides” (Biomolecules, 2025).

≈ marks a conversion by molar mass, not a printed value. Where two headings read alike, the source gives them in different places. Numbered stars: 1 amine (or outer) side, 2 acyl side, 3 side chain; on linkers, the order of the positions; unused ones are H or OH. Bridge positions count the residues as written; N and C are the ends. Square brackets hold non-standard residues; d marks the D form. Peptide text beside a SMILES is read from it. * marks the point of attachment. β2hAla(R) = C[C@H](CN[*:1])C(=O)[*:2]; Decanoyl = CCCCCCCCCC(=O)*; Dap = NC[C@H](N)C(=O)O; Sar = CNCC(=O)O

Data set [1] in a line: TLC precursor-binding assay with lipid II. Details: key to Lipid II (TLC binding): “+” indicates binding confirmed; “-” indicates no binding; “~” indicates potential binding with absence of precursor band. The conditions noted are these: peptide 0.5, 1, 2 equiv. (nisin 0.1, 0.5, 1 equiv.) with lipid II in Tris·HCl pH 7.5, 50 mM CaCl2, 1 h; silica TLC. The method, then: (§1) Lipid II and undecaprenyl phosphate (C55-P) (1 equiv., 30 µL) in Tris•HCl buffer (0.2% Triton X-100, 26 mM MgCl2, and 50 mM CaCl2 at pH 7.5) were incubated with the peptides (0.5, 1, 2 equiv.) or nisin (0.1, 0.5, 1 equiv.) in 30 µL water for 1 h. The reaction was then extracted with ^tBuOH/6 M PyOAc (2/1 v/v, 100 µL) and the organic phase was dried using an Eppendorf vacuum centrifuge 5301 (Fisher Scientific, Loughborough, UK) under reduced pressure. The solid was redissolved in CHCl3/MeOH (1/1 v/v, 30–60 µL) for spotting onto the TLC plates. In addition to the peptide–lipid mixtures, a control of each peptide/nisin with 30 µL buffer, and a control of each lipid with 30 µL HPLC-grade water were also incubated and subjected to the same workup. Silica TLC plates were run in a CHCl3/MeOH/H2O/NH3 (88/48/10/1 v/v) solvent system and stained using iodine vapour, phosphomolybdic acid (PMA), or KMnO4 stain, as well as visualisation at 254 nm and 365 nm.

Data set [2] has as its system B. subtilis 168. In kind it is cell-based. The method, then:
MICs were measured in triplicate by microbroth dilution. An overnight culture of B. subtilis 168 (DSMZ German Collection of Microorganisms and Cell Cultures GmbH) was inoculated at 5 × 10^5 CFU/mL in cation-adjusted Mueller–Hinton broth (MHB II) with or without 15 mM or 100 mM CaCl2. Serial two-fold peptide dilutions (128 - 1 µg/mL for analogues and 16 - 0.25 µg/mL for daptomycin) were incubated in polypropylene U-bottom 96-well plates (200 µL final volume) at 37 °C for 24 h. MIC was the lowest concentration at which no growth was observed. Optical density measurements at 620 nm were performed using a Thermo Scientific Multiskan FC (Thermo Fisher Scientific Inc., Paisley, UK). MIC was determined from the lowest concentration at which no tubidity was observed, using an untreated positive growth control, and a broth-only sterility control as references.

A short description of data set [3]: TLC precursor-binding assay with C55-P. The conditions noted are these: for C55-P (TLC binding): peptide 0.5, 1, 2 equiv. with C55-P in Tris·HCl pH 7.5, 50 mM CaCl2, 1 h, silica TLC; for C55-P spot on TLC after incubation with peptide (in words): absence of C55-P spot = potential indicator of binding, KMnO4 staining in Figure S5. Details: key to C55-P (TLC binding): “+” indicates binding confirmed; “-” indicates no binding; “~” indicates potential binding with absence of precursor band. Here is the method: as §1

The nature of data set [4]: head-to-tail type lactamisation of side-chain-protected branched depsipeptide (Gly10 N-terminus of ester branch + C-terminal Pro9), HATU/DIPEA (pH ~10), microwave. The conditions noted are these: the molecule shown is the open-chain precursor, DCM, 6.0 mM, 70.0 °C, 1.0 h.

As for `CCCCCCCCCC(=O)N[C@@H](CC(=O)O)C(=O)N[C@H]1CNC(=O)[C@@H]2CCCN2C(=O)[C@H](C(C)C)NC(=O)[C@@H](CC(=O)O)NC(=O)CNC(=O)[C@H](CC(=O)O)NC(=O)[C@H](CC(=O)O)NC(=O)[C@H](CCCCN)NC(=O)[C@@H](C(C)C)NC1=O` [Peptide M1] (Decanoyl-D[Dap][dV]KDDG[dD]VP; lactam 2-C), the “Lipid II (TLC binding)” value in data set [1] is reported as “-”. Further, in data set [2] (168, 24 h), the “MIC + Ca^2+” value was 128 µg/mL and the “MIC − Ca^2+” value was determined as 128 µg/mL (≈ 108 µM). Besides, the “C55-P (TLC binding)” value in data set [3] was “-”.
As to `CCCCCCCCCC(=O)N[C@@H](Cc1c[nH]c2ccccc12)C(=O)N[C@H](CC(N)=O)C(=O)N[C@@H](CC(=O)O)C(=O)N[C@@H]1C(=O)NCC(=O)N[C@@H](CCCN)C(=O)N[C@@H](CC(=O)O)C(=O)N[C@H](C)C(=O)N[C@@H](CC(=O)O)C(=O)NCC(=O)N[C@H](CO)C(=O)N[C@@H]([C@H](C)CC(=O)O)C(=O)N[C@@H](CC(=O)c2ccccc2N)C(=O)O[C@@H]1C` [Daptomycin, reference compound], the “Lipid II (TLC binding)” value in data set [1] is reported as “-”. Also, the “MIC − Ca^2+” value in data set [2] (B. subtilis 168, MHB II with 0 mM CaCl2, 5 × 10^5 CFU/mL, 37 °C, 24 h, two-fold dilution series, triplicate) was determined as 16 µg/mL (≈ 9.87 µM). In addition, the “decrease in activity in the absence of calcium” value in data set [2] (B. subtilis 168, MIC without Ca versus with 15 or 100 mM Ca) is listed as 16- to 32 fold. Besides, in data set [3], the “C55-P spot on TLC after incubation with peptide (in words)” value (from here on “C55-P spot on TLC after incubation”) is reported as “a lack of binding” and the “C55-P (TLC binding)” value is reported as “-”.
Regarding `CCCCCCCCCC(=O)NC[C@@H](C)C(=O)NCC(=O)N[C@H](CCC(=O)O)C(=O)N[C@@H](Cc1ccc(O)cc1)C(=O)N[C@@H]1C(=O)N[C@H]([C@H](C)CC)C(=O)N[C@@H](CC(=O)O)C(=O)N[C@@H](CC(=O)O)C(=O)N2CCC[C@H]2C(=O)NCC(=O)N[C@H](CCC(=O)O)C(=O)N[C@@H](CCC(=O)O)C(=O)N(C)CC(=O)O[C@@H]1C` [Peptide C1b] (Decanoyl-[β2hAla(R)]G[dE]YT[dI]DDPG[dE]E[Sar]; ester 5-C), the “Lipid II (TLC binding)” value in data set [1] is reported as “-”. For the same compound, in data set [2] (168, 24 h), the “MIC + Ca^2+” value turned out to be 128 µg/mL. In data set [3], the “C55-P spot on TLC after incubation” value is on record as “no longer visible” and the “C55-P (TLC binding)” value is listed as “~”.
`CCCCCCCCCC(=O)NC[C@@H](C)C(=O)NCC(=O)N[C@H](CCC(=O)OC(C)(C)C)C(=O)N[C@@H](Cc1ccc(OC(C)(C)C)cc1)C(=O)N[C@H](C(=O)N[C@@H](C(=O)N[C@@H](CC(=O)OC(C)(C)C)C(=O)N[C@@H](CC(=O)OC(C)(C)C)C(=O)N1CCC[C@H]1C(=O)O)[C@H](C)CC)[C@@H](C)OC(=O)CN(C)C(=O)[C@H](CCC(=O)OC(C)(C)C)NC(=O)[C@@H](CC(=O)OC(C)(C)C)NC(=O)CN`: the ring closure, overall yield in data set [4] (28-membered ring) turned out to be 0.3%.
For the compound `CCCCCCCCCC(=O)NC[C@@H](C)C(=O)NCC(=O)N[C@H](CCC(=O)O)C(=O)N[C@@H](Cc1ccc(O)cc1)C(=O)N[C@@H]1C(=O)N[C@H]([C@H](C)CC)C(=O)N[C@@H](CC(=O)O)C(=O)N[C@@H](CC(=O)O)C(=O)N2CCC[C@H]2C(=O)NCC(=O)N[C@@H](CC(=O)O)C(=O)N[C@@H](CCC(=O)O)C(=O)N(C)CC(=O)O[C@@H]1C` [Peptide C6] (Decanoyl-[β2hAla(R)]G[dE]YT[dI]DDPGDE[Sar]; ester 5-C), the “Lipid II (TLC binding)” value in data set [1] was “-”. Also, in data set [2] (168, 24 h), the “MIC + Ca^2+” value was 128 µg/mL and the “MIC − Ca^2+” value came out at 128 µg/mL (≈ 85.2 µM). Besides, in data set [3], the “C55-P spot on TLC after incubation” value is given as “no longer visible” and the “C55-P (TLC binding)” value is reported as “~”.
Consider `CCCCCCCCCC(=O)N[C@@H](CC(=O)O)C(=O)N[C@H]1CNC(=O)[C@@H]2CCCN2C(=O)[C@H](C(C)C)NC(=O)CNC(=O)[C@@H](CC(=O)O)NC(=O)CNC(=O)[C@H](CC(=O)O)NC(=O)[C@H](CC(=O)O)NC(=O)[C@H](CCCCN)NC(=O)[C@@H](C(C)C)NC1=O` [Peptide M4] (Decanoyl-D[Dap][dV]KDDG[dD]GVP; lactam 2-C), for which the “Lipid II (TLC binding)” value in data set [1] is listed as “-”. Moreover, in data set [2] (168, 24 h), the “MIC + Ca^2+” value was 128 µg/mL and the “MIC − Ca^2+” value stood at 128 µg/mL (≈ 103 µM). Moreover, the “C55-P (TLC binding)” value in data set [3] is listed as “-”.
Regarding `CCCCCCCCCC(=O)N[C@@H](CC(=O)O)C(=O)N[C@H]1CNC(=O)[C@@H]2CCCN2C(=O)[C@H](C(C)C)NC(=O)[C@@H](CC(=O)O)NC(=O)CNC(=O)[C@H](CC(=O)O)NC(=O)CNC(=O)[C@H](CC(=O)O)NC(=O)[C@H](CCCCN)NC(=O)[C@@H](C(C)C)NC1=O` [Peptide M2] (Decanoyl-D[Dap][dV]KDGDG[dD]VP; lactam 2-C), the “Lipid II (TLC binding)” value in data set [1] is on record as “-”. For the same compound, in data set [2] (168, 24 h), the “MIC + Ca^2+” value was found to be 128 µg/mL and the “MIC − Ca^2+” value is 128 µg/mL (≈ 103 µM). In addition, the “C55-P (TLC binding)” value in data set [3] was “-”.
With `CCCCCCCCCC(=O)NC[C@@H](C)C(=O)NCC(=O)N[C@H](CCC(=O)OC(C)(C)C)C(=O)N[C@@H](Cc1ccc(OC(C)(C)C)cc1)C(=O)N[C@H](C(=O)N[C@@H](C(=O)N[C@@H](CC(=O)OC(C)(C)C)C(=O)N[C@@H](CC(=O)OC(C)(C)C)C(=O)N1CCC[C@H]1C(=O)O)[C@H](C)CC)[C@@H](C)OC(=O)CN(C)C(=O)[C@H](CCC(=O)OC(C)(C)C)NC(=O)CNC(=O)[C@@H](CCC(=O)OC(C)(C)C)NC(=O)CN`, the ring closure, overall yield in data set [4] (31-membered ring) was 0.3%.
`CCCCCCCCCC(=O)NC[C@@H](C)C(=O)NCC(=O)N[C@H](CCC(=O)O)C(=O)N[C@@H](Cc1ccc(O)cc1)C(=O)N[C@@H]1C(=O)N[C@H]([C@H](C)CC)C(=O)N[C@@H](CC(=O)O)C(=O)N[C@@H](CC(=O)O)C(=O)N2CCC[C@H]2C(=O)NCC(=O)N[C@H](CCC(=O)O)C(=O)N[C@@H](CCC(=O)O)C(=O)N(C)CC(=O)O[C@@H]1C` [Peptide C1a] (Decanoyl-[β2hAla(R)]G[dE]YT[dI]DDPG[dE]E[Sar]; ester 5-C): the “Lipid II (TLC binding)” value in data set [1] is “-”. Moreover, in data set [2] (168, 24 h), the “MIC + Ca^2+” value turned out to be 128 µg/mL and the “MIC − Ca^2+” value is 128 µg/mL (≈ 84.4 µM). The “C55-P (TLC binding)” value in data set [3] is given as “-”.
With `CCCCCCCCCC(=O)NC[C@@H](C)C(=O)NCC(=O)N[C@H](CCC(=O)OC(C)(C)C)C(=O)N[C@@H](Cc1ccc(OC(C)(C)C)cc1)C(=O)N[C@H](C(=O)N[C@@H](C(=O)N[C@@H](CC(=O)OC(C)(C)C)C(=O)N[C@@H](CC(=O)OC(C)(C)C)C(=O)N1CCC[C@H]1C(=O)O)[C@H](C)CC)[C@@H](C)OC(=O)CN(C)C(=O)[C@H](CCC(=O)OC(C)(C)C)NC(=O)[C@H](CC(=O)OC(C)(C)C)NC(=O)CN`, in data set [4] (28-membered ring), the ring closure, overall yield amounted to 0.2%.
The same measure, in the same setting: the figure for `CCCCCCCCCC(=O)NC[C@@H](C)C(=O)NCC(=O)N[C@H](CCC(=O)OC(C)(C)C)C(=O)N[C@@H](Cc1ccc(OC(C)(C)C)cc1)C(=O)N[C@H](C(=O)N[C@@H](C(=O)N[C@@H](CC(=O)OC(C)(C)C)C(=O)N[C@@H](CC(=O)OC(C)(C)C)C(=O)N1CCC[C@H]1C(=O)O)[C@H](C)CC)[C@@H](C)OC(=O)CN(C)C(=O)[C@H](CC(=O)OC(C)(C)C)NC(=O)[C@@H](CC(=O)OC(C)(C)C)NC(=O)CN` is 0.3%.
In the case of `CCCCCCCCCC(=O)NC[C@@H](C)C(=O)NCC(=O)N[C@H](CCC(=O)O)C(=O)N[C@@H](Cc1ccc(O)cc1)C(=O)N[C@@H]1C(=O)N[C@H]([C@H](C)CC)C(=O)N[C@@H](CC(=O)O)C(=O)N[C@@H](CC(=O)O)C(=O)N2CCC[C@H]2C(=O)NCC(=O)N[C@@H](CCC(=O)O)C(=O)N[C@@H](CCC(=O)O)C(=O)N(C)CC(=O)O[C@@H]1C` [Peptide C2a] (Decanoyl-[β2hAla(R)]G[dE]YT[dI]DDPGEE[Sar]; ester 5-C), the “Lipid II (TLC binding)” value in data set [1] was “-”. Further, in data set [2] (168, 24 h), the “MIC + Ca^2+” value is on record as 128 µg/mL and the “MIC − Ca^2+” value was 128 µg/mL (≈ 84.4 µM). In data set [3], the “C55-P spot on TLC after incubation” value is listed as “no longer visible” and the “C55-P (TLC binding)” value is “~”.
